Test results taken from US20240269170A1, “Treatment of Inflammatory Conditions or Diseases” (Queen Mary University of London, priority 2021, published 2024).

Test system: K/B×N serum induced arthritis in C57BL/6 mice
Assay: Sustained K/B×N serum induced arthritis, transfer of monocytes from arthritic mice incubated with MCTR3
Assay type: in vivo, mouse
Experimental: (C-D) K/B×N serum (100 μL, i.p.) was administered to C57BL/6 mice on day 0, 2 and 9 to induce and prolong inflammatory arthritis and, on day 12, mice were treated i.v. with 2×10^6 monocytes isolated from arthritic mice and incubated with either vehicle (PBS+0.1% EtOH) or 1 nM MCTR3 for 90 min at 37° C. Disease course was monitored daily by assessing C) clinical scores and D) oedema. Results are mean±SEM. and expressed as percent change from day of treatment. n=9 per group from two distinct experiments. (E) On day 22 hind paws were harvested joints were fixed, sectioned, stained using H&E stain and leukocyte infiltration evaluated. Top and centre panels present representative images from each experimental group; bottom panel Quantitation of the scores in each of the group. Results are mean±SEM. n=8 mice per group. Statistical differences were evaluated using Mann-Whitney U test. IFP=intrapatellar fat, M=meniscus, TB=Tibia, PF=Pannus formation, arrows denote leukocyte infiltration. (F-G) Paws were harvested 10 days after treatment and lipid mediator profiles were determined using LC-MS/MS-based lipid mediator profiling and evaluated using PLS-DA. (F) scores plot with highlighted regions denoting the clusters representing cells from each group (G) VIP scores for top 15 mediators. Each dot in the score plot represents a separate mouse.
FIG. 4: Regulation of joint reparative pathways in mice receiving MCTR3-trained monocytes. K/B×N serum (100 μL, i.p.) was administered to C57BL/6 mice on day 0, 2 and 9 to induce and prolong inflammatory arthritis and, on day 12, mice were treated i.v. with 2×10^6 monocytes isolated from arthritic mice and incubated with either vehicle (PBS+0.1% EtOH) or 1 nM MCTR3 for 90 min. (A-C) On day 22 hind paws were harvested, fixed, and stained to evaluate A) proteoglycan content using Safranin-O staining; B) Col 2 and C) Col X expression was evaluated using immunofluorescence. Left panels present representative images from each experimental group, right panels provide a quantitative evaluation of the staining. Results are expressed as percent change vs Monocyte group. n=7-8 mice per group. Statistical differences were evaluated using Wilcoxon signed rank test. (D-I) Hind paws were also collected on day 22 to evaluate the expression of the indicated genes was evaluated using quantitative realtime PCR. Results are from n=5 mice per group. Statistical differences were evaluated using Mann Whitney-U test.
FIG. 5: MCTR3 reprograms the arthritic monocyte-derive macrophage transcriptome. A-B) Arthritis was induced and prolonged in C57BL/6 mice by administering 100 μL K/B×N serum i.p. on day 0, 2 and 9. Mice were treated on day 12 i.v. with 2×10^6 monocytes isolated from arthritic mice and incubated either with vehicle (PBS+0.1% DMSO) or 10 μM RG108, a DNMT inhibitor, for 15 min and then with a vehicle (PBS+0.1% EtOH) or 1 nM MCTR3 for 90 min (37° C.). Disease course was monitored daily by assessing A) clinical scores and B) oedema. Results are mean±SEM and expressed as percent change from day of treatment. n=10 mice per group. Statistical differences were evaluated using Two-way ANOVA. (C-E) K/B×N serum (100 μL, i.p.) was administered to mice on days 0, 2 and 9 to induce and prolong inflammatory arthritis. On day 12, mice were treated i.v. with 2×10^6 monocytes isolated from arthritic mice that were previously incubated with either vehicle (PBS+0.1% EtOH) or 1 nM MCTR3 for 90 min. Cells were isolated from paw joints on day 22, sorted for CD45^+ cells and single cell RNA sequencing was performed. […] Results are from n=4 mice per group. (F-G) Monocytes were isolated from human healthy volunteers, these cells were then incubated with GM-CSF (7 days, 37° C.) then with either Vehicle or MCTR3 (1 nM, 37° C.). Cells were lysed and the phosphoproteome determined using mass spectrometry. […]

[1] = 200 μg nor-NOHA i.p. daily for 10 days from day 12
[2] = 200 μg nor-NOHA i.p. daily, mice given MCTR3-reprogrammed monocytes

N=C(NO)NCC[C@H](N)C(=O)O [nor-NOHA, N^ω-hydroxy-nor-L-arginine]
clinical scores in mice given MCTR3-reprogrammed monocytes [1]: increase
oedema in mice given MCTR3-reprogrammed monocytes [1]: increase
upregulation of Dbl in PKH67+ CD64+ cells [2]: reversed
upregulation of TGF-β1 in PKH67+ CD64+ cells [2]: reversed
